From patent US20250154288A1, “CYTOTOXICITY TARGETING CHIMERAS FOR C-C CHEMOKINE RECEPTOR 2-EXPRESSING CELLS” (GLAXOSMITHKLINE INTELLECTUAL PROPERTY DEVELOPMENT LIMITED, priority 2022, published 2025)
Structures can show the parent of a compound that is named as a salt.

What was measured:
[1] = target: T1, CHOK1 cells engineered to overexpress human CCR2 (Homo sapiens, UniProt P41597); experiment: Antibody Dependent Cellular Cytotoxicity (ADCC) Reporter Assay; assay type: cell-based; conditions: with anti-cotinine antibody (human IgG1 Fc, S239D/I332E); Jurkat FcγRIIIa NFAT-luciferase reporter cells; average if several runs; read-out: ADCC Reporter Assay pEC50 (converted)
T1 construct: expressed in transfected cells; host or cells: CHOK1
Outline: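 CHOK1-hCCR2 target cells co-incubated ~12-18 h with compound (1 pM–10 μM), anti-cotinine rabbit/human IgG1 S239D/I332E antibody (0.01–200 μg/mL) and Jurkat FcγRIIIa NFAT-luciferase reporter cells. Luminescence signal:background versus no-compound wells; EC50 from four-parameter fit, reported as pEC50, averaged over runs.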

[2] = target: human alpha1 nicotinic acetylcholine (nACh) receptor (Homo sapiens, UniProt P02708+Q07001); experiment: Nicotinic Acetylcholine Receptor Antagonism Assay (IONFlux automated patch clamp); assay type: cell-based; conditions: for IC50: antagonism of nAChR stimulated with acetylcholine, average if several runs; for Emax at 100 µM: maximum percentage antagonism at Maximum Concentration of Compound Tested 100 μM, read-out: Maximum Response (%)
Sequence of human alpha1 nicotinic acetylcholine (nACh) receptor (P02708 21-457): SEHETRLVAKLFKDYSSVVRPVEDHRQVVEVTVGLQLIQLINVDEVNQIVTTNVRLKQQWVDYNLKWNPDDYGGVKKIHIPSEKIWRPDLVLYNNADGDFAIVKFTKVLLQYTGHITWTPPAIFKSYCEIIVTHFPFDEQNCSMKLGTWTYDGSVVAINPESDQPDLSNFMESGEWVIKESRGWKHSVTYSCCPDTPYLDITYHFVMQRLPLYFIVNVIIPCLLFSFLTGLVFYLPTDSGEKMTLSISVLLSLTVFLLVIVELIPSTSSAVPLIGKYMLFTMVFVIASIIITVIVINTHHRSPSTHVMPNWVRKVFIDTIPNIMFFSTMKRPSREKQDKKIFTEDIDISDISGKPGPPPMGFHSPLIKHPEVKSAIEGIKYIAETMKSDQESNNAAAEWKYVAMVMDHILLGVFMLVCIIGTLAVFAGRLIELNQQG
Sequence of human alpha1 nicotinic acetylcholine (nACh) receptor (P11230 24-501 partner): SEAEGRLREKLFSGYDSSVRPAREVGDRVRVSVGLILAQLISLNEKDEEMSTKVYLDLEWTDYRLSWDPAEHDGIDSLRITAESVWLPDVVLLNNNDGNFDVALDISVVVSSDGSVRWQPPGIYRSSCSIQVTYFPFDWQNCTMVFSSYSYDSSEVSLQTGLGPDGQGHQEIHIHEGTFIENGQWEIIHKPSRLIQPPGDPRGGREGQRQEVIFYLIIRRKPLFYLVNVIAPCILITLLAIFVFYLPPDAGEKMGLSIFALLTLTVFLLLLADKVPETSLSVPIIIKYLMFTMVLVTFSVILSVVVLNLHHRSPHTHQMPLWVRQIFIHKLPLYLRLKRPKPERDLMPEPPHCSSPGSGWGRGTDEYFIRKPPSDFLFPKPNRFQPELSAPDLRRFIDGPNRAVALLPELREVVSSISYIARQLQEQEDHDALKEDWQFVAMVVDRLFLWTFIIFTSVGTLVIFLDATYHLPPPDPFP
Sequence of human alpha1 nicotinic acetylcholine (nACh) receptor (Q07001 22-517): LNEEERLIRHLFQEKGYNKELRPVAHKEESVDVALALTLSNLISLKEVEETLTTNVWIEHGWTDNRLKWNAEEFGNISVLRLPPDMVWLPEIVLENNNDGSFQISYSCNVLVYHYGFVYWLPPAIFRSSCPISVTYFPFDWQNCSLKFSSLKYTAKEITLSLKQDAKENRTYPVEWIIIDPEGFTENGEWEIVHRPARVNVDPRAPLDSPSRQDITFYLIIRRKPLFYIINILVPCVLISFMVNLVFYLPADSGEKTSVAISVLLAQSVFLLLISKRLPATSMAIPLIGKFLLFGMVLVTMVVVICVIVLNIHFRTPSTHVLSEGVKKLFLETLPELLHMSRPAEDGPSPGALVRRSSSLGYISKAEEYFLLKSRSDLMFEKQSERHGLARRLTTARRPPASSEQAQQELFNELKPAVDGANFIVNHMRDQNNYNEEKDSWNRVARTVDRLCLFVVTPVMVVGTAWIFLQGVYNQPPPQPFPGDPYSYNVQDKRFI
Experimental: Cells expressing human alpha1 nicotinic acetylcholine (nACh) receptor (nAChR) were washed and dissociated using Trypsin containing buffer. Cells were then washed and seeded at a density of 3-5 million cells/mL and allowed to grow for 3 days. Then, 60-80 μL of cells were added to plates and incubated with dose response of an ARM compound of Formula (I) with a top concentration of either 10 μM or 100 μM. The receptor was then stimulated via addition of acetylcholine (ACh) and activation of the receptor was monitored via the IONFlux automated patch clamp system. IonFlux Data Analyzer software was utilized to perform leak subtraction and measure (min) peak current amplitude.
Data processing: (1) Current values recorded for vehicle only applications in individual traps/patterns were subtracted from corresponding current amplitude values for control, test article and control+test article. (2) Control response was calculated as % of the average response of the 3rd out of total 3 ACh (10 mM) applications alone. In rare situations, if the 3rd ACh response was obscured due to technical artifacts, the 2nd and/or 1st ACh (10 mM) application was considered as control. The peak current amplitude generated in the presence of each test article concentration was then used to calculate the % inhibition as compared to control response (10 mM ACh alone). These estimates were further corrected for vehicle response and run down corrected by normalizing with time matched control responses (10 mM ACh alone). The corrected percentages were then fit with a non-linear function in GraphPad Prism 6 (or later versions) to determine the IC50.
Exclusion criteria: (i) any n's with poor recording quality, (ii) control current amplitude <500 pA or (iii) significant outliers, as determined by the Grubbs' test.
ARMs compounds of Formula (I) of the invention were tested for antagonism of the nAChR in the above assay in […] experimental runs and the results are shown in Table 6 below. Antagonistic activity of the compounds of Formula (I) of the invention is reported as an IC50 value (half maximal inhibitory concentration) and the maximum percentage antagonism observed at the highest concentration of compound of Formula (I) tested, as indicated in Table 6. For compounds tested in more than one experimental run, the IC50 value is reported as an average.

[3] = target: Anti-cotinine antibody (SEQ ID NO: 11 / SEQ ID NO: 12); experiment: Binding of Anti-Cotinine Antibody to ARM Compounds measured by Surface Plasmon Resonance (SPR); parameters: species or system rabbit variable region with human IgG1 Fc domain; conditions: Biacore T200, 37° C., Kd = koff/kon, average if several runs
Experimental: Anti-cotinine antibodies having a heavy chain sequence of SEQ ID NO: 11 and a light chain sequence of SEQ ID NO: 12 (rabbit variable region with human IgG1 Fc domain containing a DE mutation (S239D/I332E)) were captured on one or more flow cells of a protein A sensor chip (Cytiva) using a Biacore T200 while reserving flow cell 1 as a reference. Following capture, a 3000 second wait step was included to reduce drift during compound analysis. ARM compounds of Formula (I) were then injected at 100 μL/min with 200 and 2000 second association and dissociation times. The entire experiment was run at 37° C. with running buffer containing 10 mM HEPES pH 7.4, 150 mM NaCl, 0.005% P20 and 1% DMSO. ARM compounds of Formula (I) were titrated with a top concentration of 200 nM using a 3-fold 5-point dilution series and a corresponding 5-injection buffer cycle was run for blank subtraction. Data were double referenced by subtracting the response of the reference flow cell from that of the antibody-containing flow cell and subsequently subtracting the referenced blank sensorgrams. Following compound analysis, the surface was regenerated using a 30 second injection of pH 1.5 glycine at a flow rate of 30 μL/min after which antibody was re-captured. The experiment was run using Biacore T200 control software and evaluated using Biacore T200 Evaluation software. Curves were fit with a 1:1 kinetic binding model to obtain kon(1/Ms), koff(1/s), Kd (M) determined as koff/kon, and residence time determined as 1/koff. (s).
Anti-cotinine antibody was tested for binding to ARMs compounds of Formula (I) of the invention in the above assay in or more experimental runs and the results are shown in Table 5 below. Affinity is reported as a pKd value. The pKd value is the negative log of the Kd value, wherein the Kd value is the dissociation constant measured in molar (M) as noted above. For compounds tested in more than one experimental run, the pKd value is reported as an average

Compound	EC50 [1]	IC50 [2]	Emax at 100 µM [2]	pKd of Antibody for ARM Compound of Formula (I) [3]
CO[C@@H]1COCC[C@@H]1N[C@@H]1CC[C@](CCC2CCN(C(=O)[C@H]3CC[C@H](NC(=O)CCCO[C@H]4CC[C@H](OCCNC(=O)[C@H]5CC(=O)N(C)[C@@H]5c5cccnc5)CC4)CC3)CC2)(C(=O)N2CCc3ncc(C(F)(F)F)cc3C2)C1 [Example 2, (2S,3S)—N-(2-(((1R,4S)-4-(4-(((1S,4R)-4-(4-(2-((1S,3R)-3-(((3S,4S)-3-Methoxytetrahydro-2H-pyran-4-yl)amino)-1-(3-(trifluoromethyl)-5,6,7,8-tetrahydro-1,6-naphthyridine-6-carbonyl)cyclopentyl)ethyl)piperidine-1-carbonyl)cyclohexyl)amino)-4-oxobutoxy)cyclohexyl)oxy)ethyl)-1-methyl-5-oxo-2-(pyridin-3-yl)pyrrolidine-3-carboxamide]	12.6 nM	> 100000 nM	40%	9.2
CO[C@@H]1COCC[C@@H]1N[C@@H]1CC[C@](CCCNC(=O)[C@H]2CC[C@H](NC(=O)CCCO[C@H]3CC[C@H](OCCNC(=O)[C@H]4CC(=O)N(C)[C@@H]4c4cccnc4)CC3)CC2)(C(=O)N2CCc3ncc(C(F)(F)F)cc3C2)C1 [Example 3, (2S,3S)-N-(2-(((1R,4S)-4-(4-(((1S,4R)-4-((3-((1S,3R)-3-(((3S,4S)-3-Methoxytetrahydro-2H-pyran-4-yl)amino)-1-(3-(trifluoromethyl)-5,6,7,8-tetrahydro-1,6-naphthyridine-6-carbonyl)cyclopentyl)propyl)carbamoyl)cyclohexyl)amino)-4-oxobutoxy)cyclohexyl)oxy)ethyl)-1-methyl-5-oxo-2-(pyridin-3-yl)pyrrolidine-3-carboxamide]	0.631 nM	> 100000 nM	38%	9.1
CO[C@@H]1COCC[C@@H]1N[C@@H]1CC[C@](CCCCNC(=O)[C@H]2CC[C@H](NC(=O)CCCO[C@H]3CC[C@H](OCCNC(=O)[C@H]4CC(=O)N(C)[C@@H]4c4cccnc4)CC3)CC2)(C(=O)N2CCc3ncc(C(F)(F)F)cc3C2)C1 [Example 7, (2S,3S)-N-(2-(((1R,4S)-4-(4-(((1S,4R)-4-((4-((1S,3R)-3-(((3S,4S)-3-Methoxytetrahydro-2H-pyran-4-yl)amino)-1-(3-(trifluoromethyl)-5,6,7,8-tetrahydro-1,6-naphthyridine-6-carbonyl)cyclopentyl)butyl)carbamoyl)cyclohexyl)amino)-4-oxobutoxy)cyclohexyl)oxy)ethyl)-1-methyl-5-oxo-2-(pyridin-3-yl)pyrrolidine-3-carboxamide]	2.51 nM	94000 nM	54%	9.2
CO[C@@H]1COCC[C@@H]1N[C@@H]1CC[C@](CCNC(=O)[C@H]2CC[C@H](NC(=O)CCCO[C@H]3CC[C@H](OCCNC(=O)[C@H]4CC(=O)N(C)[C@@H]4c4cccnc4)CC3)CC2)(C(=O)N2CCc3ncc(C(F)(F)F)cc3C2)C1 [Example 8, (2S,3S)-N-(2-(((1R,4S)-4-(4-(((1R,4R)-4-((2-((1R,3R)-3-(((3S,4S)-3-Methoxytetrahydro-2H-pyran-4-yl)amino)-1-(3-(trifluoromethyl)-5,6,7,8-tetrahydro-1,6-naphthyridine-6-carbonyl)cyclopentyl)ethyl)carbamoyl)cyclohexyl)amino)-4-oxobutoxy)cyclohexyl)oxy)ethyl)-1-methyl-5-oxo-2-(pyridin-3-yl)pyrrolidine-3-carboxamide]	1.58 nM	–	48%	9.1
CO[C@@H]1COCC[C@@H]1N[C@@H]1CC[C@@](C(=O)N2Cc3cc(C(F)(F)F)cnc3[C@H](NC(=O)[C@H]3CC[C@H](NC(=O)CCCO[C@H]4CC[C@H](OCCNC(=O)[C@H]5CC(=O)N(C)[C@@H]5c5cccnc5)CC4)CC3)C2)(C(C)C)C1 [Example 14, (2S,3S)-N-(2-(((1R,4S)-4-(4-(((1R,4R)-4-(((R)-6-((1S,3R)-1-isopropyl-3-(((3S,4S)-3-methoxytetrahydro-2H-pyran-4-yl)amino)cyclopentane-1-carbonyl)-3-(trifluoromethyl)-5,6,7,8-tetrahydro-1,6-naphthyridin-8-yl)carbamoyl)cyclohexyl)amino)-4-oxobutoxy)cyclohexyl)oxy)ethyl)-1-methyl-5-oxo-2-(pyridin-3-yl)pyrrolidine-3-carboxamide, 3Formic acid salt]	< 0.002 nM	> 100000 nM	38%	9.0
CO[C@@H]1COCC[C@@H]1N[C@@H]1CC[C@@](C(=O)N2CCc3nc(CCCCOc4cccc(C(=O)NCCOCCOCCOCCOCCOCCOCCOCCOCCOCCNC(=O)[C@H]5CC(=O)N(C)[C@@H]5c5cccnc5)c4)c(C(F)(F)F)cc3C2)(C(C)C)C1 [Example 22, (2S,3S)—N-(1-(3-(4-(6-((1S,3R)-1-Isopropyl-3-(((3S,4S)-3-methoxytetrahydro-2H-pyran-4-yl)amino)cyclopentane-1-carbonyl)-3-(trifluoromethyl)-5,6,7,8-tetrahydro-1,6-naphthyridin-2-yl)butoxy)phenyl)-1-oxo-5,8,11,14,17,20,23,26,29-nonaoxa-2-azahentriacontan-31-yl)-1-methyl-5-oxo-2-(pyridin-3-yl)pyrrolidine-3-carboxamide]	1.58 nM	–	–	9.3
